“And” between values parts separate entries of the source, which are not always exact repeats. Identical values can stand only once.
What was measured:
[1] = molecular target: T1, Nluc-FFA1 (Homo sapiens, UniProt O14842); assay: NanoBRET binding (saturation, competition, kinetics) at N terminal Nluc tagged FFA1; conditions: for Specific BRET (690/450)%: Figure 4Ci; for Specific BRET (690/450)% / Specific BRET (540/450)%: technical duplicates; for Specific BRET (540/450)%: Figure 4Cii
T1 construct: expressed in transfected cells

[2] = molecular target: T2, FFA1-Nluc (Homo sapiens, UniProt O14842); assay: Bystander BRET internalisation assay, FFA1-Nluc in HEK293T cells; type: cell-based; parameters: expressed in transfected cells; host or cells: HEK293T (ATCC, CRL-3216), transient; conditions: in words; up to 60 min
Experimental: Cells were transfected using a reverse transfection protocol while plating into a poly-D-lysine coated white 96-well plates. Cells were plated at 60,000 cells with 100 ng of plasmid DNA and 0.6 µg of polyethyleneimine (PEI) per well. Cells were cultured for 24 h before washing with HBSS and incubating in HBSS at 37 °C for 30 min. NanoGlo substrate was added a final 1:800 dilution and plates incubated for 10 min at 37 °C. […] After 5 min of baseline measurements, readings were paused and test compounds added to the plate.

[3] = molecular target: T2, FFA1-Nluc; assay: DISCo-BRET (endpoint, spectra scan, kinetics) with TUG-2591 and TUG-2597 at C terminal Nluc tagged FFA1; type: binding; parameters: expressed in transfected cells; conditions: for Specific BRET (540/450), % of control: Figure 4Bii, single replicate values (technical duplicate)
Summary of the method: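 After Nano-Glo substrate (1:800 final), ligand-treated FFA1-Nluc or Nluc-FFA1 cells, doxycycline-induced (100 ng/mL), were read. Kinetic association/dissociation runs were at 25 °C; endpoint and 440–740 nm spectra came after 5 min at 37 °C. Non-specific signal came from competing ligands at high concentration.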

T2 sequence (O14842 whole entry): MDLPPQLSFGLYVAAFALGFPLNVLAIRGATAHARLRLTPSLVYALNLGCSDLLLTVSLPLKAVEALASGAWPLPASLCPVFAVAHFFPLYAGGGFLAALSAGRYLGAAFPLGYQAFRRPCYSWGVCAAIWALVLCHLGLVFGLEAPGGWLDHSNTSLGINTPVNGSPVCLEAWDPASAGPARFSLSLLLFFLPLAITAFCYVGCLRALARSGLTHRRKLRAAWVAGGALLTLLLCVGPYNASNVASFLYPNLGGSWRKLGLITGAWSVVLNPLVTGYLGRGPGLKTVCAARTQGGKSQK
T1 sequence (O14842 whole entry): as above

- 'bottom' of the IC50 curve fit, Nano-BRET TUG-2591 ([1]; percentage of binding in the absence of competing ligand, tracer TUG-2591 100 nM): 150%
- 'bottom' of the IC50 curve fit, Nano-BRET TUG-2597 ([1]; percentage of binding in the absence of competing ligand, tracer TUG-2597 […]): 5.3%
- pIC50 Nano-BRET TUG-2597 ([1]; tracer TUG-2597 […], NBD/Nluc): 7.1±0.03
- pKi Nano-BRET TUG-2597 ([1]; using Kd TUG-2597 380 nM): 7.4±0.03
- internalization of FFA1-Nluc [2]: No internalization
- pIC50 DISCo-BRET NBD/Nluc ([3]; 100 nM TUG-2591 and […] TUG-2597, NC = No competition): 7.1±0.2
- pIC50 DISCo-BRET SulfoCy5/NBD ([3]; 100 nM TUG-2591 and […] TUG-2597, one site model, NC = No competition): 7.6±0.1
- 'bottom' of the IC50 curve, DISCo-BRET NBD/Nluc ([3]; percentage of binding obtained in the absence of competing ligand): 2.7%
- 'bottom' of the IC50 curve, DISCo-BRET SulfoCy5/NBD ([3]; percentage of binding obtained in the absence of competing ligand, 100 nM TUG-2591 and […] TUG-2597): 25%
- pKi DISCo-BRET NBD/Nluc ([3]; using Kd TUG-2597 380 nM): 7.3±0.2
SMILES: COc1ccc(CCCC(C)(C)C)c(N2CCC(COc3cccc(C(CC(=O)O)C4CC4)c3)CC2)c1.O=C(O)C(F)(F)F (stereo not drawn) [T360]
- Specific BRET (690/450)% ([1]; log[Ligand] -5): 144.71% and 144.91% and 150.40% and 149.82% and 134.29% and 145.90%
- Specific BRET (690/450)% ([1]; log[Ligand] -5.5): 150.41% and 165.34% and 156.87% and 151.43% and 153.00% and 148.40%
- Specific BRET (690/450)% ([1]; log[Ligand] -6): 147.37% and 160.23% and 150.08% and 152.06% and 150.91% and 153.01%
- Specific BRET (690/450)% ([1]; log[Ligand] -6.5): 152.25% and 156.48% and 155.51% and 156.07% and 157.69% and 151.71%
- Specific BRET (690/450)% ([1]; log[Ligand] -7): 145.58% and 149.69% and 148.14% and 147.21% and 151.85% and 147.91%
- Specific BRET (690/450)% ([1]; log[Ligand] -8): 131.96% and 136.95% and 136.24% and 131.47% and 126.78% and 129.57%
- Specific BRET (690/450)% ([1]; log[Ligand] -9): 110.80% and 118.14% and 114.71% and 107.71% and 113.55% and 115.30%
- Specific BRET (690/450)% ([1]; log[Ligand] -10): 99.19% and 105.01% and 94.99% and 98.91% and 101.09% and 100.81%
- Specific BRET (540/450)% ([1]; log[Ligand] -6.5): 37.02% and 22.26% and 31.97% and 27.51% and 29.14% and 29.84% and 21.82% and 24.91%
- Specific BRET (540/450)% ([1]; log[Ligand] -7): 53.44% and 33.59% and 38.71% and 49.07% and 47.92% and 48.08% and 44.12% and 39.90%
- Specific BRET (540/450)% ([1]; log[Ligand] -8): 84.61% and 81.81% and 70.02% and 81.70% and 81.41% and 76.64% and 80.12%
- Specific BRET (540/450)% ([1]; log[Ligand] -9): 105.73% and 99.36% and 90.61% and 103.73% and 98.31% and 99.33% and 93.77%
- Specific BRET (540/450)% ([1]; log[Ligand] -10): 104.20% and 95.80% and 91.09% and 108.91% and 101.37% and 98.63% and 98.32% and 101.68%
- Specific BRET (540/450), % of control ([3]; log[Ligand] -5): 1.63 % of control and 7.70 % of control and -6.77 % of control and 6.77 % of control and -12.97 % of control and -14.56 % of control and 1.39 % of control and 12.17 % of control and -49.44 % of control and -45.86 % of control and -1.49 % of control and 1.49 % of control and 11.42 % of control and 8.60 % of control
- Specific BRET (540/450), % of control ([3]; log[Ligand] -5.5): 30.05 % of control and 22.50 % of control and 2.63 % of control and 15.04 % of control and 41.18 % of control and 27.53 % of control and 25.39 % of control and 35.48 % of control and -24.38 % of control and -7.83 % of control and -19.08 % of control and -0.74 % of control and 16.94 % of control and 11.73 % of control
- Specific BRET (540/450), % of control ([3]; log[Ligand] -6): 30.79 % of control and 26.05 % of control and 32.33 % of control and 27.63 % of control and 21.16 % of control and 17.29 % of control and 31.30 % of control and 14.26 % of control and 23.94 % of control and -20.81 % of control and -12.14 % of control and 8.18 % of control and 24.56 % of control and 26.12 % of control
- Specific BRET (540/450), % of control ([3]; log[Ligand] -6.5): 56.11 % of control and 56.70 % of control and 19.92 % of control and 23.50 % of control and 31.40 % of control and 51.88 % of control and 45.22 % of control and 38.96 % of control and 25.28 % of control and 31.99 % of control and -27.26 % of control and -0.25 % of control and 41.03 % of control and 36.03 % of control
- Specific BRET (540/450), % of control ([3]; log[Ligand] -7): 69.58 % of control and 52.70 % of control and 27.26 % of control and 51.32 % of control and 37.09 % of control and 73.27 % of control and 43.13 % of control and 45.22 % of control and 35.12 % of control and 64.21 % of control and 2.48 % of control and 20.07 % of control and 56.78 % of control and 46.56 % of control
- Specific BRET (540/450), % of control ([3]; log[Ligand] -8): 90.01 % of control and 86.45 % of control and 67.29 % of control and 72.37 % of control and 95.79 % of control and 112.63 % of control and 106.43 % of control and 144.35 % of control and 71.81 % of control and 80.31 % of control and 48.08 % of control and 68.65 % of control and 78.15 % of control and 70.13 % of control
- Specific BRET (540/450), % of control ([3]; log[Ligand] -9): 104.22 % of control and 94.30 % of control and 79.70 % of control and 92.67 % of control and 141.30 % of control and 86.46 % of control and 144.00 % of control and 157.22 % of control and 122.37 % of control and 108.50 % of control and 74.10 % of control and 106.82 % of control and 97.86 % of control and 85.14 % of control

Reference: PMC12254266, “Multicolored sequential resonance energy transfer for detection of simultaneous ligand binding at G protein-coupled receptors” (Nature Communications, 2025)
